Molecules are shown by their SMILES. Where two headings read alike, the source gives them in different places. A value given as a limit tells only on which side of the number the result lay.

The target of the test is NSD2 [1-1365] (Homo sapiens (Human), UniProt O96028). The experiment in a line: LC-MS/MS-based NSD2 enzymatic assay (SAH production). To be noted: read-out: NSD2 IC50. The class given is biochemical. On the procedure:
LC-MS/MS-Based NSD2 Enzymatic Assay
This assay employed LC-MS/MS technology to monitor the SAH production from the NSD2 enzymatic reaction. The enzymatic reaction was performed in white proxiplate plus 384-well microplate (Perkin Elmer). The reaction mixture (10 μL) were composed of 8 nM NSD2 [1-1365], […] SAM (USB, 10601) and 400 nM nucleosome (purified from mouse liver) in reaction buffer (20 mM Tris-HCl, pH at 8.0, 0.01% Tween 20, 10 mM MgCl2, 50 mM NaCl, 1 mM DTT, 1 mM TCEP (pH7.5)). After 90 min incubation at room temperature, 3 μL quenching solution containing 2.5% TFA with 320 nM d4-SAH was added to stop the reaction.
For the inhibition assay, compound solutions were transferred into the wells by Mosquito™ (TTP LabTech). The inhibition assays were carried out by preincubating various concentrations of the inhibitor with 5 uL reaction mixture containing 16 nM NSD2 [1-1365] and 2 uM SAM (USB, 10601) in reaction buffer. After 20 min preincubation, 5 uL solution containing 800 nM nucleosome (purified from mouse liver) in reaction buffer was added to initiate the reaction. The reaction was stopped by 3 μL quenching solution containing 2.5% TFA with 320 nM d4-SAH after 90 min.
The SAH production from the enzymatic assays were monitored by LC-MS/MS on an API 4000 triple quadrupole mass spec with Turbolon Spray (Applied Biosystem) coupled with Prominenece UFLC(Shimazu). Liquid chromatography was performed on a Chromolith FastGradient HPLC column (RP-18e, 25-2 mm, from Merck) at a flow rate of 0.8 ml/min. The column was connected directly to the turbo ion electrospray operating in the positive-ion mode. Mobile phase A is 0.1% FA and 2% methanol in water and mobile phase B is 0.1% FA in ACN. Injection volume was 3 μl and the autosampler was kept at 4 degree. SAH and d4-SAH were simultaneously monitored. Data were acquired and processed by Analyst software.
To quantify the formed SAH, d4-SAH was added as internal standard (IS). A series of SAH (Sigma, A9384) solution at varying concentration (1-500 nM in reaction buffer) was mixed with quenching solution mentioned above. Then LC-MS/MS was carried out on API 4000 LC/MS/MS system to detect both SAH and d4-SAH. The plot of SAH peak area/IS peak area vs SAH concentration was used to generate the normalization factor of SAH. The SAH production from real enzymatic reaction was derived from the standard curve of SAH. The down-limit of our system for the detection of SAH is around 1-2 nM, and the linear range can reach up to 500 nM.

Setting [1] is: NSD2 biochemical activity, class symbols.

Chain of NSD2 [1-1365] (O96028 whole entry): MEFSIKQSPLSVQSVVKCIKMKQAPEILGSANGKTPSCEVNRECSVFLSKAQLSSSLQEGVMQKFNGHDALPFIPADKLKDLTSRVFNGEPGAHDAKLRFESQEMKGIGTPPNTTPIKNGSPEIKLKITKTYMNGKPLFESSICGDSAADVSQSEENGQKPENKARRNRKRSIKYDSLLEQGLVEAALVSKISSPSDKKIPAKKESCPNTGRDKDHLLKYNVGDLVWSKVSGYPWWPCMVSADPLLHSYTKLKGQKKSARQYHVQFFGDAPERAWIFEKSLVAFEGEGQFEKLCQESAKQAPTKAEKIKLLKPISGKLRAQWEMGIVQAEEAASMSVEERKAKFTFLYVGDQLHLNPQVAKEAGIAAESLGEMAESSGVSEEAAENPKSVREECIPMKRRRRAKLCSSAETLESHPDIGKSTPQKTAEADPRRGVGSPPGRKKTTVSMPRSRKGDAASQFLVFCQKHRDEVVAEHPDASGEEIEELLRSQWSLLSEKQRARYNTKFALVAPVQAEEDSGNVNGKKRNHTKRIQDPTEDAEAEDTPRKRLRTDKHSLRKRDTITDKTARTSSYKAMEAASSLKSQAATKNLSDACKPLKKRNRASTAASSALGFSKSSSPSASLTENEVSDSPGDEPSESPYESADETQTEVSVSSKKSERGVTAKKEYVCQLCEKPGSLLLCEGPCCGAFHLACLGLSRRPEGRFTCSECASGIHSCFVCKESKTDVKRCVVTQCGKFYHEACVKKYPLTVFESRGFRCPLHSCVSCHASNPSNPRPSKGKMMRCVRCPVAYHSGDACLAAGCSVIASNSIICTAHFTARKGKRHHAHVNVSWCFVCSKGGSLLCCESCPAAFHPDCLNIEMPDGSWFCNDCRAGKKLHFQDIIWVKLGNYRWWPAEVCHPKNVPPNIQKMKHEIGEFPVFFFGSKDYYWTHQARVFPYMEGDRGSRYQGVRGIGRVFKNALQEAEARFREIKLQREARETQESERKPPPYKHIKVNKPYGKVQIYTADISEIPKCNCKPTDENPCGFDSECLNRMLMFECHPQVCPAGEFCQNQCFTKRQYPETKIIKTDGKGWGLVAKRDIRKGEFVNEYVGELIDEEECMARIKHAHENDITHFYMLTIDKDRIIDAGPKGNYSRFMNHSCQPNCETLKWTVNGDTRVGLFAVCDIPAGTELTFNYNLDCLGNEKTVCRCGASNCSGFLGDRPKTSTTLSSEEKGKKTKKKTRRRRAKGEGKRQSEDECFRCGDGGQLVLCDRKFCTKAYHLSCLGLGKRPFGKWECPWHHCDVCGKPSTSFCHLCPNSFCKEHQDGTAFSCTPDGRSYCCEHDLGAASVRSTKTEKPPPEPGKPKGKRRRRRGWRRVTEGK

For `Cn1ncc2cc(-c3cc(Cn4cnc5c(N)ncnc54)c(N4CCC[C@](N)([C@H](O)C(F)F)C4)cn3)c(F)cc21` [Example 143, (S)-1-((R)-3-amino-1-(4-((6-amino-9H-purin-9-yl)methyl)-6-(6-fluoro-1-methyl-1H-indazol-5-yl)pyridin-3-yl)piperidin-3-yl)-2,2-difluoroethan-1-ol], the IC50 – broadly, the midpoint of a concentration-inhibition curve – under setting [1] fell in the range of 10 to 1000 nM.

On to `COc1cc(F)c(-c2ncc(N3CCC[C@](N)([C@H](O)C(F)F)C3)c(Cn3cnc4c(N)ncnc43)c2F)cc1F` [Example 149, (S)-1-((R)-3-amino-1-(4-((6-amino-9H-purin-9-yl)methyl)-6-(2,5-difluoro-4-methoxyphenyl)-5-fluoropyridin-3-yl)piperidin-3-yl)-2,2-difluoroethan-1-ol], for which the IC50 under setting [1] fell in the range of 10 to 1000 nM.

For the molecule `Nc1ncnc2c1ncn2Cc1cc(-c2ccc3c(c2)CCO3)ncc1N1CCC[C@](N)(c2cccc(Cl)n2)C1` [Example 185, (R)-9-((5-(3-amino-3-(6-chloropyridin-2-yl)piperidin-1-yl)-2-(2,3-dihydrobenzofuran-5-yl)pyridin-4-yl)methyl)-9H-purin-6-amine], the half-inhibitory concentration (IC50) lay in the range of 10 to 1000 nM.

As to `Nc1ncnc2c1ncn2Cc1cc(-c2ccc(F)cc2)ncc1N1CCCC(N)(c2ccc(F)cn2)C1` (stereo not drawn) [Example 189, 9-((5-(3-amino-3-(5-fluoropyridin-2-yl)piperidin-1-yl)-2-(4-fluorophenyl)pyridin-4-yl)methyl)-9H-purin-6-amine], the 50% inhibitory concentration (IC50) fell in the range of 10 to 1000 nM.

`Nc1ncnc2c1ncn2Cc1cc(C2CC2)ncc1N1CCC[C@](N)(c2cccc(Cl)n2)C1` [Example 204, (R)-9-((5-(3-amino-3-(6-chloropyridin-2-yl)piperidin-1-yl)-2-cyclopropylpyridin-4-yl)methyl)-9H-purin-6-amine]: the concentration for half-maximal inhibition (IC50) was in the range of 10 to 1000 nM.

As to `COc1ccc(-c2cc(Cn3cnc4c(N)ncnc43)c(N3CCC[C@](N)(c4ccc(F)c(C)n4)C3)cn2)cc1F` [Example 207, (R)-9-((5-(3-amino-3-(5-fluoro-6-methylpyridin-2-yl)piperidin-1-yl)-2-(3-fluoro-4-methoxyphenyl)pyridin-4-yl)methyl)-9H-purin-6-amine], the IC50 is 10 to 1000 nM.

With `Nc1ncnc2c1ncn2Cc1cc(-c2ccc3nccn3c2)ncc1N1CCCC(N)(c2cccc(Cl)n2)C1` (stereo not drawn) [Example 210, 9-((5-(3-amino-3-(6-chloropyridin-2-yl)piperidin-1-yl)-2-(imidazo[1,2-a]pyridin-6-yl)pyridin-4-yl)methyl)-9H-purin-6-amine], the IC50 lay within 10 to 1000 nM.

Consider `CC(O)c1ccc([C@@]2(N)CCCN(c3cnc(-c4ccc(F)c(F)c4)cc3Cn3cnc4c(N)ncnc43)C2)nc1F` (stereo partly drawn) [Example 215, 1-(6-((R)-3-amino-1-(4-((6-amino-9H-purin-9-yl)methyl)-6-(3,4-difluorophenyl)pyridin-3-yl)piperidin-3-yl)-2-fluoropyridin-3-yl)ethan-1-ol], for which the 50% inhibitory concentration (IC50) was 10 to 1000 nM.

On to `Cn1cnc2ccc(-c3cc(Cn4cnc5c(N)ncnc54)c(N4CCCC(N)(c5cccc(Cl)n5)C4)cn3)cc21` (stereo not drawn) [Example 220, 9-((5-(3-amino-3-(6-chloropyridin-2-yl)piperidin-1-yl)-2-(1-methyl-1H-benzo[d]imidazol-6-yl)pyridin-4-yl)methyl)-9H-purin-6-amine], for which the IC50 was in the range of 10 to 1000 nM.

Take `Nc1ncnc2c1ncn2Cc1cc(-c2ccc3ccnn3c2)ncc1N1CCCC(N)(c2cccc(Cl)n2)C1` (stereo not drawn) [Example 222, 9-((5-(3-amino-3-(6-chloropyridin-2-yl)piperidin-1-yl)-2-(pyrazolo[1,5-a]pyridin-6-yl)pyridin-4-yl)methyl)-9H-purin-6-amine]: the IC50 was 10 to 1000 nM.

On to `N#Cc1ccc(-c2cc(Cn3cnc4c(N)ncnc43)c(N3CCCC(N)(c4cccc(Cl)n4)C3)cn2)cc1F` (stereo not drawn) [Example 223], for which the IC50 lay in the range of 10 to 1000 nM.

In the case of `Nc1ncnc2c1ncn2Cc1cc(-c2ccc(F)c(F)c2)ncc1N1CCCC(N)(c2ccc(Cl)nn2)C1` (stereo not drawn) [Example 249, 9-((5-(3-amino-3-(6-chloropyridazin-3-yl)piperidin-1-yl)-2-(3,4-difluorophenyl)pyridin-4-yl)methyl)-9H-purin-6-amine], the IC50 lay within 1 to 10 nM.

Take `CCc1cncc([C@@]2(N)CCCN(c3cnc(-c4ccc(F)cc4)cc3Cn3cnc4c(N)ncnc43)C2)n1` [Example 250, (R)-9-((5-(3-amino-3-(6-ethylpyrazin-2-yl)piperidin-1-yl)-2-(4-fluorophenyl)pyridin-4-yl)methyl)-9H-purin-6-amine]: the IC50 lay within 10 to 1000 nM.

In the case of `CCc1cncc([C@@]2(N)CCCN(c3cnc(-c4ccc(F)cc4)cc3Cn3cnc4c(N)nccc43)C2)n1` [Example 256, (R)-1-((5-(3-amino-3-(6-ethylpyrazin-2-yl)piperidin-1-yl)-2-(4-fluorophenyl)pyridin-4-yl)methyl)-1H-imidazo[4,5-c]pyridin-4-amine], the IC50 is 10 to 1000 nM.

For `Nc1nccc2c1ncn2Cc1cc(N2CCC2)ncc1N1CCCC(N)(c2cccc(Cl)n2)C1` (stereo not drawn) [Example 265, 1-((5-(3-amino-3-(6-chloropyridin-2-yl)piperidin-1-yl)-2-(azetidin-1-yl)pyridin-4-yl)methyl)-1H-imidazo[4,5-c]pyridin-4-amine], the half-maximal inhibitory concentration (IC50) was more than 1000 nM.

As to `Nc1ncnc2c1ncn2Cc1cc(-c2ccc(F)cc2)ncc1N1CCC[C@](N)(c2ccn(C(F)F)n2)C1` [Example 273, (R)-9-((5-(3-amino-3-(1-(difluoromethyl)-1H-pyrazol-3-yl)piperidin-1-yl)-2-(4-fluorophenyl)pyridin-4-yl)methyl)-9H-purin-6-amine], the IC50 fell in the range of 1 to 10 nM.

As for `Cn1ccc([C@@]2(N)CCCN(c3cnc(-c4ccc(F)c(F)c4)cc3Cn3cnc4c(N)ncnc43)C2)n1` [Example 275, (R)-9-((5-(3-amino-3-(1-methyl-1H-pyrazol-3-yl)piperidin-1-yl)-2-(3,4-difluorophenyl)pyridin-4-yl)methyl)-9H-purin-6-amine], the IC50 was 1 to 10 nM.

As to `CCn1ccc([C@@]2(N)CCCN(c3cnc(C4CC4)cc3Cn3cnc4c(N)nccc43)C2)n1` [Example 276, (R)-1-((5-(3-amino-3-(1-ethyl-1H-pyrazo1-3-yl)piperidin-1-yl)-2-cyclopropylpyridin-4-yl)methyl)-1H-imidazo[4,5-c]pyridin-4-amine], the IC50 lay within 10 to 1000 nM.

Turning to `Nc1nccc2c1ncn2Cc1cc(-c2ccc(F)cc2)ncc1N1CCC[C@](N)(c2ccn(C(F)F)n2)C1` [Example 279, (R)-1-((5-(3-amino-3-(1-(difluoromethyl)-1H-pyrazol-3-yl)piperidin-1-yl)-2-(4-fluorophenyl)pyridin-4-yl)methyl)-1H-imidazo[4,5-c]pyridin-4-amine], the IC50 lay within 1 to 10 nM.

Turning to `Nc1ncnc2c1ncn2Cc1cc(-c2ccc(F)c(F)c2)ncc1N1CCCC(N)(C(F)CF)C1` (stereo not drawn) [Example 287, 9-((5-(3-amino-3-(1,2-difluoroethyl)piperidin-1-yl)-2-(3,4-difluorophenyl)pyridin-4-yl)methyl)-9H-purin-6-amine], the half-maximal inhibitory concentration (IC50) was in the range of 10 to 1000 nM.

Regarding `Nc1ncnc2c1ncn2Cc1cc(-c2ccc(F)c(F)c2)ncc1N1CCC[C@]2(COC(=O)N2)C1` [Example 292, (R)-7-(4-((6-amino-9H-purin-9-yl)methyl)-6-(3,4-difluorophenyl)pyridin-3-yl)-3-oxa-1,7-diazaspiro[4.5]decan-2-one], the 50% inhibitory concentration (IC50) was 10 to 1000 nM.

`CS(=O)(=O)CC1(N)CCCN(c2cnc(-c3ccc(F)c(F)c3)cc2Cn2cnc3c(N)ncnc32)C1` (stereo not drawn) [Example 298, 9-((5-(3-amino-3-((methylsulfonyl)methyl)piperidin-1-yl)-2-(3,4-difluorophenyl)pyridin-4-yl)methyl)-9H-purin-6-amine]: the half-inhibitory concentration (IC50) is more than 1000 nM.

Turning to `Nc1ncnc2c1ncn2Cc1cc(-c2ccc(F)c(F)c2)ncc1N1CCCC(N)(C(F)C(F)F)C1` (stereo not drawn) [Example 300, 9-((5-(3-amino-3-(1,2,2-trifluoroethyl)piperidin-1-yl)-2-(3,4-difluorophenyl)pyridin-4-yl)methyl)-9H-purin-6-amine], the IC50 fell in the range of 10 to 1000 nM.

Take `Nc1ncnc2c1ncn2Cc1cc(-c2ccc(F)c(F)c2)ncc1N1CCC(O)C(N)(CC(F)F)C1` (stereo not drawn) [Example 301, 3-amino-1-(4-((6-amino-9H-purin-9-yl)methyl)-6-(3,4-difluorophenyl)pyridin-3-yl)-3-(2,2-difluoroethyl)piperidin-4-ol]: the half-inhibitory concentration (IC50) lay within 10 to 1000 nM.

(Values after patent publication US11420970B1 (NOVARTIS AG, priority 2019, dated 2022).)
